Measurements taken from patent US20260207625A1, “New medical use of 3a-ethynyl-3ß hydroxyandrostan-17-one oxime” (priority 2022, published 2026).

Experiments:
6-OHDA rat model [1] = assay: Anxiety, open arena test; type: in vivo; details: 6-OHDA rats; 50 mg/kg daily intragastric; 5 weeks after surgery, 10 days of treatment
Text: (§1) The unilaterally 6-hydroxydopamine (6-OHDA) rat model according to Carvalho M et al. in Molecular Neurodegeneration 2013, 8:14; pp. 1-11, was used.
(§2) Under isoflurane (5% induction and then 2%) anesthesia the animals were placed on a stereotaxic frame with non-traumatic ear bars (Stoelting, USA), and unilaterally injected (left hemisphere) using an 30-gauge needle Hamilton syringe (Hamilton Company, Switzerland), with either vehicle (sham group, n=20) or 6-OHDA hydrochloride (Sigma, USA) (6-OHDA group, n=40) directly into the medial forebrain bundle (coordinates related to Bregma, AP=−4.4 mm; ML=−1.0 mm; DV=−7.8 mm; according to (Paxinos G, Watson C. The Rat Brain in Stereotaxic Coordinates. 4. San Diego, USA: Academic; 1998).
(§3) At a rate of 1 μl/min, sham animals received 2 μl of 0.2 mg/ml ascorbic acid in 0.9% NaCl, and 6-OHDA animals were injected with 2 μl 6-OHDA hydrochloride (4 μg/μl) with 0.2 mg/ml ascorbic acid in 0.9% NaCl. After injection the syringe was left in place for 10 minutes to allow diffusion.
(§4) Rats positive in the apomorphine-induced rotation test (20 animals) were included in the study, together with 20 sham-operated controls. […]
Anxiety was evaluated in an open arena during five minutes by measuring the time that the rat remains in the central zone, instead of close to the walls of the box, where the rats feel safer. […]

[2] = system: tyrosine hydroxylase (TH); assay: Tyrosine hydroxylase content in striatum, immunohistochemistry; type: in vivo, rat; details: 6-OHDA rats treated with golexanolone; 5 weeks after surgery; mean±SEM; untreated 6-OHDA rats 36±4%
Text: as §1, §2, §3
(§5) Rats positive in the apomorphine-induced rotation test (20 animals) were included in the study, together with 20 sham-operated controls. Golexanolone treatment (50 mg/kg, daily, intragastric) and vehicle treatment as negative controls started 4 weeks after surgery. […]
Tyroxine hydroxylase (TH) was analysed according to Heo et al (Curr Biol. 2020 Jan. 20; 30(2): pp. 276-291). […]

[3] = system: 6-OHDA rats treated with L-DOPA; assay: L-dopa Induced Dyskinesia (LID) rat model, Abnormal Involuntary Movements (AIMs); type: in vivo; details: 6 weeks of daily L-DOPA, 3 weeks of oral golexanolone, compared to group receiving only L-DOPA
Experimental: The ability of golexanolone to reduce or eliminate L-dopa Induced Dyskinesia (LID) was analyzed. This test is described in FIG. 14.
L-dopa Induced Dyskinesia (LID) was induced in a rat model described by Loiodice et al in ACS Chem Neurosci. 2018 Apr. 18; 9(4): pp. 762-772. Abnormal Involuntary Movements (AIM) was measured.
Rats positive in the apomorphine test received daily L-DOPA treatment starting 4 weeks after surgery and oral golexanolone treatment starting 7 weeks after surgery.
The experiment included the following groups: • 1) 6-OHDA rats treated with L-DOPA and receiving vehicle; • 2) 6-OHDA rats treated with golexanolone and treated with L-DOPA (n=12 per group). The appearance of a variety of AIMs were analyzed after 6 weeks of daily L-DOPA injections, and 3 weeks of golexanolone treatment, as described in Lundblad M et al; Eur J Neurosci. 2002 January; 15(1): pp. 120-132, and Loiodice et al in ACS Chem Neurosci. 2018 Apr. 18; 9(4): pp. 762-772.
Axial AIMs, limb AIMs, orolingual AIMs and locomotive AIMs were evaluated. One hour after the daily dose of golexanolone, L-DOPA was injected and AIMs were analyzed every 20 minutes for a total of three hours, as shown in FIG. 15.
As shown in this graph, there were less AIMs in the group of animals treated with golexanolone compared to the group who received only L-DOPA.

α-synuclein = α-synuclein content in striatum by Western blot; type: in vivo, rat; details: 6-OHDA rats treated with golexanolone, 10 weeks after surgery, mean±SEM, untreated 6-OHDA rats 195±35%
Text: as §1, §2
(§6) At a rate of 1 μl/min, sham animals received 2 μl of 0.2 mg/ml ascorbic acid in 0.9% NaCl, and 6-OHDA animals were injected with 2 μl 6-OHDA hydrochloride (4 μg/μl) with 0.2 mg/ml ascorbic acid in 0.9% NaCl. After injection the syringe was left in place for 10 minutes to allow diffusion. […]
α-synuclein content was analyzed by Western blot. […] Membranes were scanned using the ScanJet 5300C (Hewlett-Packard, Amsterdam, the Netherlands) and band intensities were quantified using Alpha Imager 2200 version 3.1.3 (Alpha Innotech Corporation). Results were expressed as percentage of shams. […]

6-OHDA rat model [4] = assay: Motor coordination, Motorater test (horizontal ladder); type: in vivo; details: 6-OHDA rats; 50 mg/kg daily intragastric; 7 weeks after surgery, 3 weeks of treatment; versus control rats
Text: as §1, §2
At a rate of 1 μl/min, sham animals received 2 μl of 0.2 mg/ml ascorbic acid in 0.9% NaCl, and 6-OHDA animals were injected with 2 μl 6-OHDA hydrochloride (4 μg/μl) with 0.2 mg/ml ascorbic acid in 0.9% NaCl. […]
Motor coordination was tested with the Motorater test (Zörner B, Filli L, Starkey M L, Gonzenbach R, Kasper H, Röthlisberger M, et al. Profiling locomotor recovery: comprehensive quantification of impairments after CNS damage in rodents. Nat Methods. 2010; 7(9): pp. 701-708). […] The performance is recorded from the bottom by a mobile high-speed camera at 200 frames per second. Failures to set a foot on the ladder stairs are quantified.

6-OHDA rat model [5] = assay: Sucrose preference test (anhedonia, depression); type: in vivo; details: 6-OHDA rats; 50 mg/kg daily intragastric; 7 weeks after surgery, 3 weeks of treatment
Text: as §1, §2, §3, §5

6-OHDA rat model [6] = assay: CatWalk test, locomotor gait swing; type: in vivo; details: 6-OHDA rats; 50 mg/kg daily intragastric; 7 weeks after surgery, 3 weeks of treatment
Text: as §1, §2, §6
(§7) The CatWalk™ system measures various aspects of locomotor pattern. Based on the position, pressure, and surface area of each footfall, multiple parameters are calculated. […] Paw print designations were assigned and data analysed using the CatWalk analysis software (v 7.1)
Locomotor gait swing was evaluated in the catwalk test. […]

astrocytes = assay: Astrocytes activation in striatum (GFAP stained area); type: in vivo, rat; details: 6-OHDA rats treated with golexanolone; 5 weeks after surgery; mean±SEM; untreated 6-OHDA rats 123±10%
Text: as §1, §2, §3, §4
Astrocytes activation was assessed at 5 weeks after surgery, by measuring the total GFAP stained area with Image J software. Results were expressed as percentage of shams.
Astrocyte activation in the striatum was analysed by immunohistochemistry. […]

6-OHDA rat model [7] = assay: Object location memory test (OLM); type: in vivo; details: 6-OHDA rats; 50 mg/kg daily intragastric; 6 weeks after surgery, 2 weeks of treatment
Text: as §1, §2, §6
The object location memory test (OLM) evaluates spatial location memory. […] The time exploring each object is analyzed. The discrimination ratio is calculated: (Time exploring new object location-time exploring old located object)/total time exploring the objects. […]

6-OHDA rat model [8] = assay: CatWalk test, initial dual stance; type: in vivo; details: 6-OHDA rats; 50 mg/kg daily intragastric
Text: as §1, §2, §6, §7
Initial dual stance was evaluated in the catwalk test. […]

6-OHDA rat model [9] = assay: Fatigue in treadmill test, 6-OHDA rats; type: in vivo; details: golexanolone 50 mg/kg daily intragastric, 5 weeks after surgery, 9 days of treatment
Text: A 6-OHDA rat model as described by Heo et al. (Curr Biol. 2020 Jan. 20; 30(2): pp. 276-291) and by Carvalho et al. (Mol. Neurodegener. 2013, 8: 14: Behavioral characterization of the 6-hydroxidopamine model of Parkinson's disease and pharmacological rescuing of non-motor deficits) is used.
as §1
Eight week old Wistar-Han male rats (56 animals) (Charles River, Barcelona) were housed, two per cage, under standard laboratory conditions: 12 hour light-dark cycle, 22° C. room temperature, 55% relative humidity, food and water available ad libitum. All manipulations were done in accordance with the local regulations (European Union Directive 2010/63/EU). […]
Fatigue was evaluated in a treadmill consisting of a motorized conveyor belt divided into two parallel sectors, each with an electrified grid. […] The value recorded during the last 15 minutes of each test (and the times it falls on the grid) is recorded. […]

microglia = assay: Microglia activation in striatum (perimeter of Iba1 stained cells); type: in vivo, rat; details: 6-OHDA rats treated with golexanolone; 5 weeks after surgery; mean±SEM; untreated 6-OHDA 217±8, shams 254±1
Text: as §1, §2, §3, §4
In this Parkinson's Disease test model, microglia activation was analyzed by measuring the perimeter of individual Iba1 stained cells with IpWin2 software at 5 weeks after surgery.

C#C[C@]1(O)CC[C@@]2(C)C(CC[C@@H]3[C@@H]2CC[C@]2(C)/C(=N/O)CC[C@@H]32)C1 (stereo partly drawn) [golexanolone, 3α-ethynyl-3β-hydroxyandrostan-17-one oxime]
Anxiety (time in the central zone of open arena) (6-OHDA rat model [1]): improves anxiety
TH staining in the striatum [2]: 62±11 % of shams
All AIMs (axial, limb, orolingual and locomotive) during three hours [3]: less AIMs
Level of α-synuclein in the injured striatum (α-synuclein): 99±9 % of shams
Errors crossing the horizontal ladder (failures to set a foot on the ladder stairs) (6-OHDA rat model [4]): made less errors
Depression (anhedonia, sucrose preference) (6-OHDA rat model [5]): improves depression
Locomotor gait swing in the CatWalk test (6-OHDA rat model [6]): improved swing
Astrocyte activation: total GFAP stained area in the injured striatum (astrocytes): 92±4 % of shams
Object location memory (discrimination ratio) (6-OHDA rat model [7]): improves object location memory
Initial dual stance in the CatWalk test (6-OHDA rat model [8]): improves initial dual stance
Fatigue (time in the treadmill, time in shock) (6-OHDA rat model [9]): improved fatigue
Microglia activation: perimeter of individual Iba1 stained cells in the injured striatum (microglia): 250±8 μm
